Source: paper PMC6891325, “The Synthesis, Characterization, Cytotoxic Activity Assessment and Structure-Activity Relationship of 4-Aryl-6-(2,5-dichlorothiophen-3-yl)-2-methoxypyridine-3-carbonitriles” (Molecules, 2019)

How the values were obtained:
MDA-MB-231 = test: MTT cytotoxicity assay, MDA-MB-231 breast cancer cells; format: cell-based, human; details: for IC50: Homo sapiens, MDA-MB-231 breast cancer cells, MTT; for SI (MDA-MB-231): selectivity index relative to normal human fibroblasts HSF1184
Method: (§1) Three different cancer cell lines; namely, DU145 derived from prostate cancer cells (American Type Culture Collection No. HTB-81), HepG2 derived from human liver cancer cells (American Type Culture Collection No. HB-8065), MBA-MB-231 derived from breast cancer cells (American Type Culture Collection No. HTB-26) and normal human fibroblasts (HSF1184) were grown and cultivated according to our previously described method. Briefly, cells were seeded in Dulbecco′s modified Eagle’s media (DMEM) supplemented with 10% heat-inactivated fetal bovine serum (FBS), 100 IU/mL penicillin, […] and 2 mM glutamine. The cells were maintained in a humidified atmosphere with 5% CO2 at 37 °C for 8 days, with subsequent media renewal. Then, cells were plated in a 96-well flat bottom plate at a concentration of 10^4 cells/well in fresh complete growth medium for 24 h and maintained in 37 °C in a 5% CO2-humidified incubator.
(§2) Cells in 96-well flat bottom plates were first serum-starved for 4 h by replacing cultured media with fresh medium (without serum). All synthesized compounds were properly dissolved in dimethyl sulfoxide (DMSO) to produce a stock concentration of 0.1 M. Cells were incubated with a range of different concentrations of the compounds we were testing (0–1000 μM) to give a final volume of 300 µL per well. In comparison, cells were incubated either alone with DMSO (negative control) or with 5-fluorouracil as a positive control. DMSO was used as a vehicle for the dissolution of the tested compounds and its final concentration in cultured media was less than 0.1%. Triplicate wells were designed for each individual dose. The compounds we synthesized were evaluated for in-vitro cytotoxicity properties via the standard 3-(4,5-dimethythiazol-2-yl)-2,5-diphenyl tetrazolium bromide (MTT) assay accordingly to our previously-reported work. The normal human fibroblast line (HSF1184) was used as a standard reference for the measurement of selectivity indexes (SIs) relative to cancer cell lines. The IC50 values and SIs were calculated accordingly.

HSF1184 = test: MTT cytotoxicity assay, normal human fibroblasts HSF1184; format: cell-based; details: for IC50: Fibroblast
Method: as §1, §2

DU145 = test: MTT cytotoxicity assay, DU145 prostate cancer cells; format: cell-based, human; details: for IC50: Homo sapiens, DU-145, DU145 prostate cancer cells, MTT; for SI (DU145): selectivity index relative to normal human fibroblasts HSF1184
Method: as §1, §2

HepG2 = test: MTT cytotoxicity assay, HepG2 liver cancer cells; format: cell-based, human; details: for IC50: MTT; for SI (HepG2): selectivity index relative to normal human fibroblasts HSF1184
Method: as §1, §2

[1] = tested on: HepG2, DU145 and MBA-MB-231 cancer cell lines; test: MTT cytotoxicity, stated jointly for the three cancer cell lines; format: cell-based; details: Homo sapiens; summary statement for HepG2, DU145 and MBA-MB-231; read-out: IC50 against all three cancer cell lines
Method: as §1, §2

[2] = Homo sapiens, HepG2, HepG2 liver cancer cells

Row | SMILES | melting point [°C] | IC50 (MDA-MB-231) [µM] | SI (MDA-MB-231) (MDA-MB-231) | IC50 (HSF1184) [µM] | IC50 (DU145) [µM] | SI (DU145) (DU145) | IC50 (HepG2; [2]) [µM] | SI (HepG2) (HepG2) | IC50 Values HSF1184 (HSF1184) | IC50 [1] [µM] | IC50 (HepG2; HepG2 liver cancer cells) [µM]
1 | COc1cc(-c2cccc([N+](=O)[O-])c2)cc(-c2cc(Cl)sc2Cl)n1 [6g, 2-(2,5-dichlorothiophen-3-yl)-6-methoxy-4-(3-nitrophenyl)pyridine] | 182 to 183 | 18.3 ± 0.34 | 4.61 | 84.56 ± 0.4 | 25.4 ± 0.38 | 3.33 | 39.43 ± 0.09 | 2.14 |  |  | 
2 | COc1cc(-c2ccccc2OC)cc(-c2cc(Cl)sc2Cl)n1 [6e, 2-(2,5-dichlorothiophen-3-yl)-6-methoxy-4-(2-methoxyphenyl)pyridine] | 135 to 136 |  |  |  |  |  |  |  |  |  | 
3 | COc1nc(-c2cc(Cl)sc2Cl)cc(-c2ccccc2)c1C#N [5a, 6-(2,5-dichlorothiophen-3-yl)-2-methoxy-4-phenylpyridine-3-carbonitrile] |  | 21.2 ± 0.37 |  | 82.39 ± 0.04 | > 100 |  | 49.6 ± 0.51 |  |  | > 100 | 
4 | COc1ccc(-c2cc(-c3cc(Cl)sc3Cl)nc(OC)c2C#N)cc1Br [5i, 4-(3-bromo-4-methoxyphenyl)-6-(2,5-dichlorothiophen-3-yl)-2-methoxypyridine-3-carbonitrile] |  | 1.38 ± 0.03 |  | 234.5 ± 0.27 | 1.82 ± 0.21 |  | 1.53 |  | high | 1 to 5 | 1.72 ± 0.42
5 | COc1nc(-c2cc(Cl)sc2Cl)cc(-c2ccc(C)cc2)c1C#N [5b, 6-(2,5-dichlorothiophen-3-yl)-2-methoxy-4-p-tolylpyridine-3-carbonitrile] |  | > 100 |  | 114.5 ± 0.38 | > 100 |  | 9.48 ± 0.63 |  |  | > 100 | 
6 | COc1cc(-c2ccc(Cl)cc2)cc(-c2cc(Cl)sc2Cl)n1 [6c, 4-(4-chlorophenyl)-2-(2,5-dichlorothiophen-3-yl)-6-methoxypyridine] |  |  |  | 112.4 ± 0.47 | 21.65 ± 0.12 |  | 11.3 ± 0.22 |  |  |  | 
7 | O=c1[nH]cc(F)c(=O)[nH]1 [5-fluorouracil, reference compound] |  | 2.21 ± 0.28 | 83.93 | 185.5 ± 0.48 | 1.92 ± 0.24 | 96.60 | 1.65 ± 0.09 | 112.41 |  |  | 
8 | COc1cccc(-c2cc(OC)nc(-c3cc(Cl)sc3Cl)c2)c1 [6f, 2-(2,5-dichlorothiophen-3-yl)-6-methoxy-4-(3-methoxyphenyl)pyridine] | 156 to 157 | 64.39 ± 0.28 | 1.63 | 104.8 ± 0.71 | 18.45 ± 0.02 | 5.68 | 38.5 ± 0.62 | 2.73 |  |  | 
9 | COc1cc(-c2ccccc2)cc(-c2cc(Cl)sc2Cl)n1 [6a, 2-(2,5-dichlorothiophen-3-yl)-6-methoxy-4-phenylpyridine] | 127 to 128 | 15.3 ± 0.41 | 5.82 | 89.34 ± 0.55 | 53.49 ± 0.02 | 1.67 | 32.31 ± 0.23 | 2.77 |  |  | 
10 | COc1nc(-c2cc(Cl)sc2Cl)cc(-c2cccc([N+](=O)[O-])c2)c1C#N [5g, 6-(2,5-dichlorothiophen-3-yl)-2-methoxy-4-(3-nitrophenyl)pyridine-3-carbonitrile] |  | 1.93 ± 0.03 |  | 135.6 ± 0.55 | 4.97 ± 0.35 |  | 2.11 ± 0.26 |  | high | 1 to 5 | 

Second part, led by results:

Row | melting point [°C] | SMILES | IC50 (MDA-MB-231) [µM] | SI (MDA-MB-231) (MDA-MB-231) | IC50 (HSF1184) [µM] | IC50 (DU145) [µM] | SI (DU145) (DU145) | IC50 (HepG2; [2]) [µM] | SI (HepG2) (HepG2) | IC50 Values HSF1184 (HSF1184) | IC50 [1] [µM] | IC50 (HepG2; HepG2 liver cancer cells) [µM]
11 | 148 to 149 | COc1cc(-c2ccc(Br)cc2)cc(-c2cc(Cl)sc2Cl)n1 [6d, 4-(4-bromophenyl)-2-(2,5-dichlorothiophen-3-yl)-6-methoxypyridine] | 15.4 ± 0.48 | 6.00 | 92.55 ± 0.42 | 29.4 ± 0.88 | 3.14 | 64.59 ± 0.33 | 1.43 |  |  | 
12 | 214 to 215 | COc1nc(-c2cc(Cl)sc2Cl)cc(-c2ccc(Br)cc2)c1C#N [5d, 4-(4-bromophenyl)-6-(2,5-dichlorothiophen-3-yl)-2-methoxypyridine-3-carbonitrile] | 2.59 ± 0.04 | 163.49 | 423.4 ± 0.49 | 3.63 ± 0.17 | 116.65 | 1.53 | 261.39 | high | 1 to 5 | 1.62 ± 0.15
13 | 179 to 180 | COc1cccc(-c2cc(-c3cc(Cl)sc3Cl)nc(OC)c2C#N)c1 [5f, 6-(2,5-dichlorothiophen-3-yl)-2-methoxy-4-(3-methoxyphenyl)pyridine-3-carbonitrile] | 43.49 ± 0.06 | 2.20 | 95.49 ± 0.29 | 27.4 ± 0.63 | 3.48 | 18.3 ± 0.31 | 5.21 |  |  | 
14 | 195 to 196 | COc1nc(-c2cc(Cl)sc2Cl)cc(-c2ccc(Cl)cc2)c1C#N [5c, 4-(4-chlorophenyl)-6-(2,5-dichlorothiophen-3-yl)-2-methoxypyridine-3-carbonitrile] | 28.3 ± 0.42 | 3.26 | 92.38 ± 0.38 | 42.36 ± 0.21 | 2.18 | > 100 |  |  | > 100 | 
15 | 150 to 151 | COc1cc(-c2ccc(C)cc2)cc(-c2cc(Cl)sc2Cl)n1 [6b, 2-(2,5-dichlorothiophen-3-yl)-6-methoxy-4-p-tolylpyridine] | 52.39 ± 0.31 | 1.95 | 102.4 ± 0.3 | 64.59 ± 0.08 | 1.59 | 39.5 ± 0.58 | 2.59 |  |  | 
16 | 204 to 205 | COc1nc(-c2cc(Cl)sc2Cl)cc(-c2ccc([N+](=O)[O-])cc2)c1C#N [5h, 6-(2,5-dichlorothiophen-3-yl)-2-methoxy-4-(4-nitrophenyl)pyridine-3-carbonitrile] | 2.14 ± 0.06 | 87.61 | 187.49 ± 0.14 | 1.77 ± 0.38 | 105.93 | 1.53 ± 0.38 | 122.54 | high | 1 to 5 | 
